Data published in patent EP4122499A1, “FIBROBLAST ACTIVATION PROTEIN INHIBITORS AND USE THEREOF” (3B Pharmaceuticals GmbH, priority 2021, dated 2023).

Columns and labels:
Human recombinant FAP [1] = target: T1, Human recombinant FAP (Homo sapiens, UniProt Q12884); test: FRET-based FAP protease activity assay (human); format: biochemical; set-up: purchased R&D systems 3715-SE; conditions: FRET-peptide substrate, 37°C; for IC50: read-out: pIC50 (Activity) (converted)
T1 sequence (Q12884 1-760): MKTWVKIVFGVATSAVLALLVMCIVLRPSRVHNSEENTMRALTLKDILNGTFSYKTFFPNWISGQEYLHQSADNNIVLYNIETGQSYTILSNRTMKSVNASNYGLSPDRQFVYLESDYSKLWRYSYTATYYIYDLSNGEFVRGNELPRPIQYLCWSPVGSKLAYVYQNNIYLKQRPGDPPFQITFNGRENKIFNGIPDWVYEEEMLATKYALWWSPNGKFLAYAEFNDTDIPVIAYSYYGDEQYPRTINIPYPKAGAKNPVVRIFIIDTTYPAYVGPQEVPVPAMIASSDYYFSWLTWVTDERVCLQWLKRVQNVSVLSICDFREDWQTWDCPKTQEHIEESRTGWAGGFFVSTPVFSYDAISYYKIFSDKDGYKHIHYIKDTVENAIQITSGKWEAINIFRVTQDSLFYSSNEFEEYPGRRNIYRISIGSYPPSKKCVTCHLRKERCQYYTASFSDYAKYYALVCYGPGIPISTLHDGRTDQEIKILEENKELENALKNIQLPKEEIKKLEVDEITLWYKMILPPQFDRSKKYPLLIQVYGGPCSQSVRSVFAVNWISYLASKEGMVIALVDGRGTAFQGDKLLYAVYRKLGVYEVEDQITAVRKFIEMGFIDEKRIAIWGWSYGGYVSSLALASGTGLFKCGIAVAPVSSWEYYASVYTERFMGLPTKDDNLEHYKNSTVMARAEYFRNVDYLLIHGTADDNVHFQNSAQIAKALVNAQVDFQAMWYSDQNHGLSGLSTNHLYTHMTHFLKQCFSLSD
Method: (§1) In order to determine the inhibitory activity a FRET-based FAP protease activity assay was established.
25 µL of a 30 µM substrate solution, diluted in assay buffer, was added. […] Four parameter logistic (4PL) curve fitting and pIC50 calculations were performed using ActivityBase software (IDBS).

recombinant human PREP = target: T2, recombinant human PREP (Homo sapiens, UniProt P48147); test: PREP protease activity assay; format: biochemical; conditions: 50 µM Z-GP-AMC substrate
T2 construct: purchased R&D systems 4308-SE
T2 sequence (P48147 1-710): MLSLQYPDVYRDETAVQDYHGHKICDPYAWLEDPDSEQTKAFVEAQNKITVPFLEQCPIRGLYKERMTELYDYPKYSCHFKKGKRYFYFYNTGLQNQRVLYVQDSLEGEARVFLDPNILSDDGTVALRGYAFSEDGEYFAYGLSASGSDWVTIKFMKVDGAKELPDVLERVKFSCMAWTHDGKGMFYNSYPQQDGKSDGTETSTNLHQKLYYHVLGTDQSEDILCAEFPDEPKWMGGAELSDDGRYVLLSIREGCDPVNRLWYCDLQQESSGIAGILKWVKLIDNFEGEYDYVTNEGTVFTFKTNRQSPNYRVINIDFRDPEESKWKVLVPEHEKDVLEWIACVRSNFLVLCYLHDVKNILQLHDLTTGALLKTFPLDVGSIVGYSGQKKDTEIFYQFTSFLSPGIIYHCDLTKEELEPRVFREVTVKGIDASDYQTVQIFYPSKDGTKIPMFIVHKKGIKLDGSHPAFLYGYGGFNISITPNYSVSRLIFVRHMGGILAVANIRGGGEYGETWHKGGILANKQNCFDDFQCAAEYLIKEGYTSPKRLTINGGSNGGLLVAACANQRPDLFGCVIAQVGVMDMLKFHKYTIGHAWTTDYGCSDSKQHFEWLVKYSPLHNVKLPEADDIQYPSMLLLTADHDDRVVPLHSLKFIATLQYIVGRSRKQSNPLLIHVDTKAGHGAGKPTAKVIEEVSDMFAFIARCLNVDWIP
Method: (§2) The PREP activity assay was performed using the FACS buffer (PBS including 1% FBS, Sigma-Aldrich, Cat# D8537). […] The DPP4 activity assay was performed in DPP assay buffer (25 mM Tris, pH 8.0).
(§3) Four parameter logistic (4PL) curve fitting and pIC50 calculations were performed using ActivityBase software.

Recombinant human DPP4 = target: T3, Recombinant human DPP4 (Homo sapiens, UniProt P27487); test: DPP4 protease activity assay; format: biochemical; conditions: 20 µM GP-AMC substrate
T3 construct: purchased R&D systems 9168-SE
T3 sequence (P27487 whole entry): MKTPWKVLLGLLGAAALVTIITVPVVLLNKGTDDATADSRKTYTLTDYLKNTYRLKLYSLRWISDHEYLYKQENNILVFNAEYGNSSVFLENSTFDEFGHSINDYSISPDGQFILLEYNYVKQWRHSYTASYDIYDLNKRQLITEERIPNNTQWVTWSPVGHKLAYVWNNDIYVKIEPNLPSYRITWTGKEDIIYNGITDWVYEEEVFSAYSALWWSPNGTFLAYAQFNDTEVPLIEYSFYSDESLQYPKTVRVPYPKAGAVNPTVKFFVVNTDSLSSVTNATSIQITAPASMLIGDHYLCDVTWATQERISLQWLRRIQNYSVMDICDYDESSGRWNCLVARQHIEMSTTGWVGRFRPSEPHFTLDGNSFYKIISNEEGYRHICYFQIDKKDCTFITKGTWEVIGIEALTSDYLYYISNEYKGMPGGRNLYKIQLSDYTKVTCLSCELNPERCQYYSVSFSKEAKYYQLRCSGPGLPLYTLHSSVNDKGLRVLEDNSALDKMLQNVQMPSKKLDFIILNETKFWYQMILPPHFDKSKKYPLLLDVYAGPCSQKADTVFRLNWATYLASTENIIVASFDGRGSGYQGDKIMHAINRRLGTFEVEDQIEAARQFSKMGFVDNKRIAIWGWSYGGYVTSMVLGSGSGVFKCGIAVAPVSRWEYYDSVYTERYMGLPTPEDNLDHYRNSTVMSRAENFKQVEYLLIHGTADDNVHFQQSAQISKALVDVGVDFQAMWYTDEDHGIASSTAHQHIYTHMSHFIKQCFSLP
Method: as §2, §3

[2] = target: T4, FAP-expressing human WI-38 fibroblasts (Homo sapiens, UniProt Q12884); test: Competitive FACS binding assay (displacement of Cy5-labeled FAP inhibitor 3BP-2935); conditions: 3 nM Cy5-labeled 3BP-2935, 4°C, 1 hour
T4 construct: FAP-expressing human WI-38 fibroblasts (ECACC 90020107) were cultured in EMEM; host or cells: WI-38 human fibroblasts
T4 sequence (Q12884 1-760): T1 sequence (Q12884 1-760)
Method: In order to determine binding of compounds according to the present invention to FAP-expressing cells, a competitive FACS binding assay was established.
Cells were diluted in FACS buffer to a final concentration of 100.000 cells per ml and 200 µl of the cell suspension are transferred to a u-shaped non-binding 96-well plate (Greiner).
Cell were washed twice with FACS buffer (see above) and resuspended in 200 µl FACS buffer. Cells were analyzed in an Attune NxT flow cytometer (Thermo Fisher Scientific). Median fluorescence intensities (Cy5 channel) was calculated by Attune NxT software and plotted against test compound concentrations. Four parameter logistic (4PL) curve fitting and pIC50 calculations were performed using ActivityBase software.

Human recombinant FAP [3] = target: T1, Human recombinant FAP; test: Surface plasmon resonance assay (Biacore T200, single cycle kinetics); format: binding; conditions: SPR, 25°C
Method: Surface plasmon resonance studies were performed using a Biacore™ T200 SPR system (Cytiva, formerly GE Healthcare). Briefly, polarized light is directed towards a gold-labeled sensor surface, and minimum intensity reflected light is detected. The angle of reflected light changes as molecules bind and dissociate. […] Test compounds are contacted with the loaded surface, and a real-time interaction profile with the FAP ligand is recorded in a sensorgram. In real-time, the association and dissociation of a binding interaction is measured, enabling calculation of association and dissociation rate constants and the corresponding affinity constants. Importantly, a background response is generated due to the difference in the refractive indices of the running and sample buffers, as well as unspecific binding of the test compounds to the flow cell surface. This background is measured and subtracted by running the sample on a control flow cell coated with the same density of capture antibody in the absence of immobilized FAP. Furthermore, baseline drift correction of the binding data is performed, which is caused by slow dissociation of the captured FAP from the immobilized antibody. This drift is measured by injecting running buffer through a flow cell with the antibody and FAP immobilized to the sensor surface.
Biacore™ CM5 sensor chips were used. […] A 150 µL aliquot was transferred into plastic vials and placed into the sample rack of the Biacore™ T200 instrument. Amine Coupling Kit Reagent solutions were transferred into plastic vials and placed into the sample rack: 90 µL of 0.4 M 1-ethyl-3-(3-dimethylaminopropyl)carbodiimide (EDC), and 90 µL of 0.1 M N-hydroxysuccinimide (NHS). A 130 µL aliquot of 1 M ethanolamine-HCl, pH 8.5, was transferred into plastic vials and placed into the sample rack. The Biacore™ liquid system was set-up as follows: Separate bottles containing distilled water (1 L), Running Buffer (500 mL), as well as an empty bottle for waste were placed onto the buffer tray. A preinstalled program for immobilization was used, with an immobilization level of 7000 RU. Immobilization was performed at 25°C. The immobilization procedure of anti-FAP antibodies was performed, as described in the Table 5. Table 5: Immobilization protocol for anti-FAP antibodies used on the CM5 sensor chip.
Human recombinant FAP was diluted in Running Buffer to a final concentration of 20 µg/mL. A 100 µL aliquot of human FAP-Working-Solution was transferred into plastic vials and placed into a sample rack. A 0.5 mM Compound-Stock-Solution was prepared by dissolving each compound in DMSO. For each test compound, Compound-Stock-Solutions were diluted in Running Buffer (HBST) at 500 nM and further diluted with HBST-DMSO Buffer (0.1% DMSO). SPR binding analyses for binary complexes were performed in SCK mode at 25°C. Following three SCK measurements, a baseline drift was assessed by injecting running buffer through a flow cell, with the antibody and FAP immobilized to the sensor surface. Table 6: Protocol for assessing the binding kinetics.
For each test compound, SPR raw data in the form of resonance units (RU) were plotted as sensorgrams using the Biacore™ T200 control software. The signal from the blank sensorgram was subtracted from that of the test compound sensorgram (blank corrected). The blank corrected sensorgram was corrected for baseline drift by subtracting the sensorgram of a SCK run without the test compound (running buffer only). The association rate (kon), dissociation rate (koff), dissociation constant (KD), and t1/2 were calculated from Blank-normalized SPR data using the 1:1 Langmuir binding model from the Biacore™ T200 evaluation software. Raw data and fit results were imported as text files in IDBS. The pKD value (negative decadic logarithm of dissociation constant) was calculated in the IDBS excel template.

Recombinant mouse FAP = target: T5, Recombinant mouse FAP (Mus musculus, UniProt P97321); test: FRET-based FAP protease activity assay (mouse); format: biochemical; conditions: FRET-peptide substrate, 37°C
T5 construct: purchased R&D systems 8647-SE
T5 sequence (P97321 1-761): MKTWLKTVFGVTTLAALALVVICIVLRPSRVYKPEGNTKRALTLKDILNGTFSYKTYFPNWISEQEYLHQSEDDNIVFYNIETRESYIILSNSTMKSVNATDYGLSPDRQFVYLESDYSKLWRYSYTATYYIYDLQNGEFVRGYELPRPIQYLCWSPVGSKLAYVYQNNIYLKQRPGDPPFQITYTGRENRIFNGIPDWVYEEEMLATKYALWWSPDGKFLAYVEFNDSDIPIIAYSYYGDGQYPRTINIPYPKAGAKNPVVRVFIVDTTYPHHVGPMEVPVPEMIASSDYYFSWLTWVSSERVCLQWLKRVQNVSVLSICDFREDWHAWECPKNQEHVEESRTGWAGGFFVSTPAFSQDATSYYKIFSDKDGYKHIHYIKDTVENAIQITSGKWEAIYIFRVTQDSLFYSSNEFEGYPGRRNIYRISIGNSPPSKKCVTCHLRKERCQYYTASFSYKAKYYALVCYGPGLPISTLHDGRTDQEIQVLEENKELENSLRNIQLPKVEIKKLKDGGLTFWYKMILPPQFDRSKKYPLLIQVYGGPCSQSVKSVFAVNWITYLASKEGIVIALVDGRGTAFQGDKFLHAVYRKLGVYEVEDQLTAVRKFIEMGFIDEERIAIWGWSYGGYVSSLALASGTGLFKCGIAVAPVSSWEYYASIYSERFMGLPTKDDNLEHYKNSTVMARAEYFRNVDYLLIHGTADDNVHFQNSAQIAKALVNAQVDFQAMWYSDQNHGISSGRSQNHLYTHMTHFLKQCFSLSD
Method: as §1
25 µL of a 30 µM substrate solution, diluted in assay buffer, was added. […] Four parameter logistic (4PL) curve fitting and pIC50 calculations were performed using ActivityBase software.

HEK-FAP cells = target: T6, HEK-FAP cells (Homo sapiens, UniProt Q12884); test: LigandTracer assay with 111In-labeled compounds; format: binding; conditions: 111In-labeled compound
T6 construct: expressed in transfected cells; host or cells: HEK293
T6 sequence (Q12884 1-760): T1 sequence (Q12884 1-760)
Method: HEK293 cells (human embryonic kidney cells) were engineered to express the human FAP. […] Cell concentrations were adjusted to 3 x 10^5 mL^-1, and 3.000 µL of the suspension was dispensed into a poly-lysine-coated, clear cell dish (10cm). Approximately 24 hours after re-seeding, the medium was replaced by assay medium (Ham's medium with 20 mM HEPES) containing 1 % FCS. The dish was placed in the LigandTracer® device and a baseline measurement was obtained using the LigandTracer® Control software (version 2.4). […] To determine the dissociation rate (kd) the cells were washed and subsequently incubated with fresh assay medium for several hours. […] Table 14 Results of the LigandTracer® assay

CS(=O)(=O)c1ccc(-c2ccc3c(C(=O)NCC(=O)N4CC(F)(F)C[C@H]4C#N)ccnc3c2)cc1
pIC50 (Activity) (Human recombinant FAP [1]): 9.1
pIC50 (PREP) (recombinant human PREP): <6
pIC50 (DPP4) (Recombinant human DPP4): <6
pIC50 (FACS) [2]: 8.5
pKD (Biacore) (Human recombinant FAP [3]; 1:1 Langmuir binding model): 10
HL [min] (Biacore) (Human recombinant FAP [3]; half-life): 37 min

N#C[C@@H]1CCCN1C(=O)CNC(=O)c1ccnc2cc(-c3ccc(C(=O)O)cc3)ccc12
IC50 (Human recombinant FAP [1]): 2 nM
IC50 (recombinant human PREP): > 1000 nM
IC50 (Recombinant human DPP4; read-out: pIC50 (DPP4) (converted)): > 1000 nM
IC50 [2]: 3.98 nM

N#C[C@@H]1CCCN1C(=O)CNC(=O)c1cc[n+]([O-])c2ccccc12
pIC50 (Activity) (Human recombinant FAP [1]): 7.6
pIC50 (PREP) (recombinant human PREP): 6.3
pIC50 (mouseFAP) (Recombinant mouse FAP): 7.5
pIC50 (DPP4) (Recombinant human DPP4): <6
pIC50 (FACS) [2]: 7.1

Cc1nc(C(=O)[C@@H]2CCCN2C(=O)CNC(=O)c2ccnc3ccccc23)no1
IC50 (Human recombinant FAP [1]): 79.4 nM
IC50 (recombinant human PREP): 1.26 nM
IC50 (Recombinant mouse FAP; read-out: pIC50 (mouseFAP) (converted)): 126 nM
IC50 [2]: 251 nM

N#C[C@@H]1CC(F)(F)CN1C(=O)CNC(=O)c1ccnc2ccc(OCCCN3CCN(C(=O)CN4CCN(CC(=O)O)CCN(CC(=O)O)CCN(CC(=O)O)CC4)CC3)cc12 [Compound 3BP-2929, reference compound]
HL (HEK-FAP cells): 276 ± 142 min

O=C(O)CN1CCN(CC(=O)O)CCN(CC(=O)NCCCS(=O)(=O)c2ccc(-c3ccc4nccc(C(=O)NCC(=O)N5CCC[C@H]5C(=O)c5nc6ccccc6o5)c4c3)cc2)CCN(CC(=O)O)CC1 [Compound 3BP-3581, (S)-2,2',2"-(10-(2-(3-(4-(4-(2-(2-(benzo[d]oxazole-2-carbonyl)pyrrolidin-1-yl)-2-oxoethylcarbamoyl)quinolin-6-yl)phenylsulfonyl)propylamino)-2-oxoethyl)-1,4,7,10-tetraazacyclododecane-1,4,7-triyl)triacetic acid]
HL (HEK-FAP cells): 345 ± 218 min

CN(CCCN1CCN(C(=O)CN2CCN(CC(=O)O)CCN(CC(O)O)CCN(CC(=O)O)CC2)CC1)c1ccc2nccc(C(=O)NCC(=O)N3CC(F)(F)C[C@H]3C#N)c2c1 [Compound 3BP-4200, reference compound]
HL (HEK-FAP cells): 1798 ± 24 min
pKD (HEK-FAP cells): 10.4 ± 0.0
